Like-named read-outs stand apart in the source and are kept apart here.
Tests used:
Experiment in all cases: Sensitivity test (agar dilution)
[1] = tested on: S. aureus SP-7928 (homo-MRSA); format: cell-based, Staphylococcus aureus
Summary of the method: (§1)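 Each strain, cultured overnight at 37° C and adjusted to about 10^6 CFU/ml in BSG, was spotted (about 5 μl) on Mueller Hinton agar with twofold serial drug concentrations. Inhibition defines the MIC.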

[2] = tested on: S. aureus MS94088 (hetero-MRSA); format: cell-based, Staphylococcus aureus; conditions: Staphylococcus aureus, MRSA
Summary of the method: as §1

S. maltophilia IID1275 = format: cell-based, Stenotrophomonas maltophilia; conditions: Stenotrophomonas maltophilia
Summary of the method: as §1

E. faecium ATCC19434 = format: cell-based, Enterococcus faecium; conditions: Enterococcus faecium
Summary of the method: as §1

SMILES: C[C@H]1C=C(c2csc(SC3=C(C(=O)O)N4C(=O)[C@H]([C@@H](C)O)[C@H]4[C@H]3C)n2)CN1 [SM, (4R,5S,6S)-6-[(1R)-1-Hydroxyethyl]-4-methyl-3-({4-[(5S)-5-methyl-2,5-dihydro-1H-pyrrol-3-yl]-1,3-thiazol-2-yl}sulfanyl)-7-oxo-1-azabicyclo[3.2.0]hept-2-ene-2-carboxylic acid]
- MIC ([1]; Staphylococcus aureus, MRSA, Concomitant (MEPM:SM = 1:4), read-out: MIC): 2 µg/mL
- MIC ([1]; Staphylococcus aureus, MRSA, Concomitant (PAPM:SM = 1:1), S. aureus SP-7928 (homo-MRSA), read-out: MIC concomitant): 2 µg/mL
- MIC ([1]; Staphylococcus aureus, MRSA, Concomitant (PIPC:SM = 1:1), S. aureus SP-7928 (homo-MRSA), read-out: MIC concomitant): 1 µg/mL
- MIC ([1]; Staphylococcus aureus, MRSA, Concomitant drug (MEPM:SM = 2:1), read-out: MIC): 1 µg/mL
- MIC ([1]; Staphylococcus aureus, MRSA, alone, read-out: MIC): 1 µg/mL
- MIC ([1]; Staphylococcus aureus, MRSA, drug alone, S. aureus SP-7928 (homo-MRSA), read-out: MIC alone): 2 µg/mL
- MIC ([1]; alone): 2 µg/mL
- MIC alone ([1]; drug alone, S. aureus SP-7928 (homo-MRSA)): 1 µg/mL
- MIC ([2]; Concomitant (AZT:SM = 1:1), S. aureus MS94088 (hetero-MRSA), read-out: MIC concomitant): 0.25 µg/mL
- MIC ([2]; Concomitant (BIPM:SM = 1:1), S. aureus MS94088 (hetero-MRSA), read-out: MIC concomitant): 0.25 µg/mL
- MIC ([2]; Concomitant (CAZ:SM = 1:1), S. aureus MS94088 (hetero-MRSA), read-out: MIC concomitant): 0.25 µg/mL
- MIC ([2]; Concomitant (CPFX:SM = 1:1), S. aureus MS94088 (hetero-MRSA), read-out: MIC concomitant): 0.125 µg/mL
- MIC ([2]; Concomitant (DRPM:SM = 1:1), S. aureus MS94088 (hetero-MRSA), read-out: MIC concomitant): 0.25 µg/mL
- MIC ([2]; Concomitant (IPM:SM = 1:1), read-out: MIC): 0.25 µg/mL
- MIC ([2]; Concomitant (MEPM:SM = 1:1), read-out: MIC): 0.25 µg/mL
- MIC ([2]; Concomitant (MEPM:SM = 1:2), read-out: MIC): 0.25 µg/mL
- MIC ([2]; Concomitant (MEPM:SM = 1:4), read-out: MIC): 0.25 µg/mL
- MIC ([2]; Concomitant (PAPM:SM = 1:1), S. aureus MS94088 (hetero-MRSA), read-out: MIC concomitant): 0.25 µg/mL
- MIC ([2]; Concomitant (PIPC:SM = 1:1), S. aureus MS94088 (hetero-MRSA), read-out: MIC concomitant): 0.125 µg/mL
- MIC ([2]; Concomitant drug (MEPM:SM = 2:1), read-out: MIC): 0.25 µg/mL
- MIC ([2]; alone, read-out: MIC): 0.25 µg/mL
- MIC ([2]; drug alone, S. aureus MS94088 (hetero-MRSA), read-out: MIC alone): 0.25 µg/mL
- MIC (S. maltophilia IID1275; IID1275, Concomitant (AZT:SM = 1:1), S. maltophilia IID1275, read-out: MIC concomitant): > 32 µg/mL
- MIC (S. maltophilia IID1275; IID1275, Concomitant (BIPM:SM = 1:1), S. maltophilia IID1275, read-out: MIC concomitant): > 32 µg/mL
- MIC (S. maltophilia IID1275; IID1275, Concomitant (CAZ:SM = 1:1), S. maltophilia IID1275, read-out: MIC concomitant): > 32 µg/mL
- MIC (S. maltophilia IID1275; IID1275, Concomitant (CPFX:SM = 1:1), S. maltophilia IID1275, read-out: MIC concomitant): 1 µg/mL
- MIC (S. maltophilia IID1275; IID1275, Concomitant (DRPM:SM = 1:1), S. maltophilia IID1275, read-out: MIC concomitant): > 32 µg/mL
- MIC (S. maltophilia IID1275; IID1275, Concomitant (IPM:SM = 1:1), read-out: MIC): > 32 µg/mL
- MIC (S. maltophilia IID1275; IID1275, Concomitant (MEPM:SM = 1:1), read-out: MIC): > 32 µg/mL
- MIC (S. maltophilia IID1275; IID1275, Concomitant (MEPM:SM = 1:2), read-out: MIC): > 64 µg/mL
- MIC (S. maltophilia IID1275; IID1275, Concomitant (MEPM:SM = 1:4), read-out: MIC): > 128 µg/mL
- MIC (S. maltophilia IID1275; IID1275, Concomitant (PAPM:SM = 1:1), S. maltophilia IID1275, read-out: MIC concomitant): > 32 µg/mL
- MIC (S. maltophilia IID1275; IID1275, Concomitant (PIPC:SM = 1:1), S. maltophilia IID1275, read-out: MIC concomitant): > 32 µg/mL
- MIC (S. maltophilia IID1275; IID1275, Concomitant drug (MEPM:SM = 2:1), read-out: MIC): > 16 µg/mL
- MIC (S. maltophilia IID1275; IID1275, drug alone, S. maltophilia IID1275, read-out: MIC alone): > 32 µg/mL
- MIC (E. faecium ATCC19434; ATCC19434, Concomitant (AZT:SM = 1:1), E. faecium ATCC19434, read-out: MIC concomitant): 0.125 µg/mL
- MIC (E. faecium ATCC19434; ATCC19434, Concomitant (BIPM:SM = 1:1), E. faecium ATCC19434, read-out: MIC concomitant): 0.25 µg/mL
- MIC (E. faecium ATCC19434; ATCC19434, Concomitant (CAZ:SM = 1:1), E. faecium ATCC19434, read-out: MIC concomitant): 0.125 µg/mL
- MIC (E. faecium ATCC19434; ATCC19434, Concomitant (CPFX:SM = 1:1), E. faecium ATCC19434, read-out: MIC concomitant): 0.25 µg/mL
- MIC (E. faecium ATCC19434; ATCC19434, Concomitant (DRPM:SM = 1:1), E. faecium ATCC19434, read-out: MIC concomitant): 0.25 µg/mL
- MIC (E. faecium ATCC19434; ATCC19434, Concomitant (IPM:SM = 1:1), read-out: MIC): 0.125 µg/mL
- MIC (E. faecium ATCC19434; ATCC19434, Concomitant (MEPM:SM = 1:1), read-out: MIC): 0.125 µg/mL
- MIC (E. faecium ATCC19434; ATCC19434, Concomitant (MEPM:SM = 1:2), read-out: MIC): 0.25 µg/mL
- MIC (E. faecium ATCC19434; ATCC19434, Concomitant (MEPM:SM = 1:4), read-out: MIC): 0.125 µg/mL
- MIC (E. faecium ATCC19434; ATCC19434, Concomitant (PAPM:SM = 1:1), E. faecium ATCC19434, read-out: MIC concomitant): 0.125 µg/mL
- MIC (E. faecium ATCC19434; ATCC19434, Concomitant (PIPC:SM = 1:1), E. faecium ATCC19434, read-out: MIC concomitant): 0.125 µg/mL

— patent US20090018111A1, “Novel Antimicrobial Medicament” (priority 2004, published 2009)
